Data as given in US20120263791A1, “FOMULATION COMPRISING 1 H-QUINAZOLINE-2, 4-DIONE AMPA RECEPTOR ANTAGONISTS, IN THE FORM OF IMMEDIATE RELEASE TABLETS AND PREPARATION THEREOF” (NOVARTIS AG, priority 2009, published 2012).

Assay: PK parameters after a single dose of three 50 mg tablets to a sample population (12)
Assay type: in vivo
Details: human, po, 150 mg, plasma, three 50 mg tablets of Example 4 in a single dose
Experimental: A 50 mg tablet as specified in Example 4 was prepared using the procedure described in Example 4. Three tablets were administered in a single dose to a sample population (12) and the PK parameters measured. These parameters are provided below.
Primary PK variables were […] and analyzed using a mixed effects linear model. Sequence, Period and Treatment factors were included in the model as fixed effects and subject as a random effect. 90% confidence intervals for PK variables (pharmacokinetic analysis population).
Drug Substance: Compound (iii); Matrix: Plasma; Analyte: Compound (iii).

## CC(C)c1cc2[nH]c(=O)n(NS(C)(=O)=O)c(=O)c2cc1-c1ccnn1C [Compound (iii)]
read-out: AUCinf, adjusted geometric mean
  AUC(0-inf): 16800 ng·h/mL
read-out: AUClast, adjusted geometric mean
  AUC(0-t): 16800 ng·h/mL
read-out: Cmax, adjusted geometric mean
  Cmax: 2910 ng/mL
